Structures are written as SMILES. In brackets after ≈: the same amount, converted by molar mass. Where only a bound is given, the exact number is not on record here.

A word on the solubility (kinetic): it is the concentration staying in solution when a stock, usually in DMSO, is diluted into the medium.

The conditions of this data set: buffer; pH 7.4; 6.0 h; 150.0 µM.
Compound `CC(Nc1nc(N2CCN(S(C)(=O)=O)CC2)nc2ccccc12)c1ccccc1` (centres undefined) displayed a kinetic solubility of 11 µg/mL (≈ 26.8 µM).

For the compound `COc1cc(Cl)c(C)cc1Nc1c2c(nc3ccccc13)CCC2`, the kinetic solubility turned out to be 3.79 µg/mL (≈ 11.2 µM). This solubility kinetic lies about 2.9-fold lower than the previous one. Then `Cc1ccc(S(=O)(=O)Nc2ccccc2C(=O)Nc2ccc(-c3ccccc3)nn2)cc1`, with below 1 µg/mL; and `COc1cc(C2CC(=O)Nc3cc4c(cc32)OCCO4)cc(Br)c1OC` (centres undefined), with below 1 µg/mL. To `Cc1cnc(-c2ccccc2C2CC2)nc1NCc1ccc(-c2cccnc2)cc1` belongs below 1 µg/mL; to `Cc1ccc(S(=O)(=O)N(C)c2ccccc2C(=O)Nc2nc(-c3ccccc3)cs2)cc1`, below 1 µg/mL; to `CN(C(=O)COC(=O)c1csc(NCc2ccccc2)n1)c1ccccc1`, 26.4 µg/mL (≈ 69.1 µM).

Compound `COc1cc(-c2nc(-c3c(C)noc3C)cc3c2cc(C)n3CCN(C)C)ccn1` came in with a kinetic solubility above 90 µg/mL. To `Cc1ccccc1C(=O)N1CCc2cc(-c3nc(NC(=O)Cc4ccc5c(c4)OCCO5)sc3C)ccc21` belongs below 1 µg/mL; to `FC(F)(F)c1ccccc1-c1nc(NCc2cccs2)c2ccccc2n1`, below 1 µg/mL; to `COc1ccc(CN(C2CCCCC2C)S(=O)(=O)c2ccc(S(=O)(=O)N(C)C)cc2)cc1OC` (centres undefined), below 1 µg/mL. As to `CNc1oc(-c2cccc(-c3ccccc3)c2)nc1C#N`, the kinetic solubility was below 1 µg/mL. For `CN(C)C(=O)c1ccc(-c2cc[nH]c(=O)c2N)cc1`, the kinetic solubility was above 38 µg/mL. The compound `CCN(CCCOc1ccc2c(Nc3cc(CC(=O)Nc4cccc(F)c4)[nH]n3)ncnc2c1)CCOP(=O)(O)O` gave a kinetic solubility above 87 µg/mL. Then `COc1cccc(CNc2ccc(S(=O)(=O)Nc3nc4ccccc4[nH]3)cc2)c1O`, with 2.59 µg/mL (≈ 6.1 µM); and `Cc1ccc(-c2cc(C(=O)NCc3cnn(C)c3)c3cc(Br)ccc3n2)cc1`, with below 1 µg/mL. Then `CC1(C)C(=O)NC2=C1C(=O)C(=O)c1ccccc12`, with above 36 µg/mL; and `COc1ccc(CNC(=O)Cn2nc3c(cc2=O)CCCC3)cc1`, with above 48 µg/mL; and `Cc1cc(Cl)ccc1COc1ccnn1-c1cc(C(=O)O)ccn1`, with above 51 µg/mL. To `CCOc1ccc(CCNC(=O)c2cc3sccc3n2Cc2ccccc2)c(F)c1OCC` belongs below 1 µg/mL; to `CCCCC1CCC(C(=O)Nc2ccc(S(=O)(=O)Nc3nccs3)cc2)CC1` (centres undefined), below 1 µg/mL. `CCOc1ccccc1C(=O)Nc1ccccc1C(=O)Nc1cccc(S(=O)(=O)C(F)(F)F)c1`: the kinetic solubility came out at 1.57 µg/mL (≈ 3.18 µM).

`O=C1Nc2ccccc2/C1=C\c1ccc(O)c(Cl)c1` registered a solubility (kinetic) of 22.8 µg/mL (≈ 83.9 µM). Against the preceding compound, the solubility kinetic is about 15-fold higher. Turning to `O=C(Nc1nc(-c2ccccc2)cs1)c1ccncc1NS(=O)(=O)c1cccnc1`, the solubility (kinetic) is above 65 µg/mL. Take `C[C@@]1(O)[C@H](O)[C@@H](CO)O[C@H]1n1ccc(N)nc1=O`: the kinetic solubility is above 38 µg/mL. `Nc1ncnc2c1c(-c1cnc3[nH]ccc3c1)nn2C1CCCC1` displayed a solubility (kinetic) above 47 µg/mL. In the case of `CN(C)CCCn1cc(C2=C(c3c[nH]c4ccccc34)C(=O)NC2=O)c2ccccc21`, the solubility (kinetic) was above 41 µg/mL. The compound `CS(=O)(=O)c1ccc2nc(NC(=O)C3CC3)sc2c1` gave a kinetic solubility of 22.7 µg/mL (≈ 76.7 µM). Then `CCOC(=O)C1=C(C)NC(=O)CC1C(=O)Nc1cc(Cl)cc(Cl)c1` (centres undefined), with 22.4 µg/mL (≈ 60.2 µM). For `O=C(Nc1ncc([S+](=O)([O-])N2CCOCC2)s1)c1cccc(Br)c1`, the kinetic solubility amounted to 2.94 µg/mL (≈ 6.79 µM). On to `CC(C)(C)c1ccc(-n2cnc3cc(C(=O)N4CCCCC4)ccc32)cc1`, for which the kinetic solubility was below 1 µg/mL. Turning to `O=S(=O)(c1ccc(Cl)cc1)c1ccccn1`, the kinetic solubility was 31.8 µg/mL (≈ 125 µM). `COc1ccccc1-c1csc(N2CCC(C(N)=O)CC2)n1` displayed a solubility (kinetic) of 3.08 µg/mL (≈ 9.7 µM). To `CN(C(=O)CNC(=O)c1ccccc1OCC(=O)Nc1ccc(I)cc1)c1ccccc1` belongs 1.28 µg/mL (≈ 2.35 µM); to `O=C(Nc1ncc(Cc2ccc(C(F)(F)F)cc2)s1)c1cnc(-c2ccccc2)s1`, below 1 µg/mL; to `Cc1noc(C)c1-c1ccc(Nc2nc(-c3ccncc3)nc3ccccc23)cc1F`, below 1 µg/mL. Then `O=S(=O)(Nc1ccc(S(=O)(=O)Nc2nccs2)cc1)c1ccc2ccccc2c1`, with 33.2 µg/mL (≈ 74.6 µM); and `Cl.N=c1c2c(n(Cc3ccccc3)c3c1CCC3)CCC2`, with above 39 µg/mL. Then `Nc1ncnc2c1c(-c1ccc(Oc3ccccc3)cc1)cn2C1CCCC1`, with below 1 µg/mL; and `Cc1cccc(S(=O)(=O)Nc2cnccc2C(=O)Nc2nc(-c3ccccc3)cs2)c1`, with 21.8 µg/mL (≈ 48.3 µM); and `CCc1nc2c(sc3nc4c(cc32)COC(C)(C)C4)c(=O)n1Cc1ccco1`, with 6.22 µg/mL (≈ 15.7 µM).

`COc1ccc(-n2cnc3cc(C(=O)N4CCCCC4)ccc32)cc1` gave a kinetic solubility above 50 µg/mL.

In the case of `COc1cccc(N2CCN(c3ncc4c(n3)CCN(Cc3ccc(Br)cc3)C4)CC2)c1`, the kinetic solubility was below 1 µg/mL. To `Cn1ccc2c(C(=O)NCC3CCC(=O)N3)nc(-c3ccccc3C#N)cc21` (centres undefined) belongs 52.4 µg/mL (≈ 140 µM); to `CC(C)(C)c1ccc(S(=O)(=O)c2cnc(SCC(=O)Nc3ccc(F)c(Cl)c3)[nH]c2=O)cc1`, 58.4 µg/mL (≈ 114 µM); to `CC(C(O)c1ccc(O)cc1)N1CCC(Cc2ccccc2)CC1` (centres undefined), above 48 µg/mL. The compound `CN(C)CCNC(=O)c1nc2nc(-c3ccccc3)c(-c3cccc(Cl)c3)cc2n1C` had a solubility (kinetic) of 66.8 µg/mL (≈ 154 µM). Then `Cc1cc(C)c2nc(-c3ccccn3)cc(C(=O)Nc3ccc(S(=O)(=O)Nc4onc(C)c4C)cc3)c2c1`, with 12 µg/mL (≈ 22.7 µM). To `O=C(Nc1ccccc1O)c1ccc(NC(=O)C2CC2)cc1` belongs 1.75 µg/mL (≈ 5.92 µM). `O=C(Cc1ccc(Cl)cc1)Nc1cnccc1C(=O)O`: the kinetic solubility was above 43 µg/mL.

On to `COc1ccccc1NC(=O)C1=C(C)Nc2c(C(=O)Nc3cccc(C)c3)cnn2C1c1ccccc1Cl` (centres undefined), for which the solubility (kinetic) is below 1 µg/mL.

For the compound `Cc1ccc(S(=O)(=O)Nc2ccccc2C(=O)Nc2cnc(-c3ccccc3)cn2)cc1`, the solubility (kinetic) was below 1 µg/mL. To `CCN(c1cc(C#CCN2CCOCC2)cc(C(=O)NCc2c(C)cc(C)[nH]c2=O)c1C)C1CCC(N(C)CCOC)CC1` (centres undefined) belongs above 89 µg/mL; to `CCCc1ccc(C(=O)NC(=O)c2ccccc2O)cc1`, 1.6 µg/mL (≈ 5.65 µM). As to `O=C(Nc1ncc(Cc2ccc(C(F)(F)F)cc2)s1)c1ccco1`, the solubility (kinetic) is below 1 µg/mL. Then `Cc1ccccc1Nc1c(-c2ccccc2O)nc2sccn12`, with below 1 µg/mL; and `CCOC(=O)C1CCN(C(=O)C(C)(C)NC(=O)Nc2ccc(-c3ccccc3)cc2)CC1`, with 10.8 µg/mL (≈ 24.6 µM). Then `Cc1ccc2oc(NC3=NC4(CCCC4)C4=C(CCCC4=O)N3)nc2c1`, with below 1 µg/mL; and `O=S(=O)(c1ccccc1)c1nnn2c1nc(NCc1cccs1)c1sccc12`, with below 1 µg/mL; and `CC1=C(C(=O)NC2CCCC2)C(c2nn(C)cc2Cl)N=C(Nc2nc3ccccc3o2)N1` (centres undefined), with 10 µg/mL (≈ 22 µM).

In the case of `O=C(CCCCCCC(=O)Nc1ccccc1)NO`, the kinetic solubility was above 39 µg/mL. Take `Cc1c(NC2=C(Cl)C(=O)N(c3ccccc3)C2=O)c(=O)n(-c2ccccc2)n1C`: the kinetic solubility is below 1 µg/mL. For the compound `O=C1CCCC2=C1C(C1CCCCC1Cl)N=C(NC1NC3CCCCC3S1)N2` (centres undefined), the solubility (kinetic) was below 1 µg/mL.

On to `Fc1ccc(Oc2nc(-c3ccncc3)nc3ccccc23)cc1F`, for which the solubility (kinetic) amounted to 6.95 µg/mL (≈ 20.7 µM). `CC[C@@]1(O)C(=O)OCc2c1cc1n(c2=O)Cc2c-1nc1ccccc1c2CCNC(C)C` registered a kinetic solubility above 6 µg/mL. Then `CC(=O)Nc1ccc(-c2csc(N3CCC(C(N)=O)CC3)n2)cc1`, with above 51 µg/mL; and `CC(C)C(=O)N1CCc2ccc(OCc3nc(C(=O)N4CCCC4)co3)cc2C1c1cccc(F)c1` (centres undefined), with 32.9 µg/mL (≈ 66.9 µM). On to `CC(CNC(=O)C1CCN(Cc2cc3ccccc3n2Cc2ccccc2)CC1)c1ccccc1` (centres undefined), for which the solubility (kinetic) is 1.05 µg/mL (≈ 2.25 µM). `Cn1ncnc1[C@H]1c2n[nH]c(=O)c3cc(F)cc(c23)N[C@@H]1c1ccc(F)cc1`: the solubility (kinetic) was above 38 µg/mL.

`C#CC1(O)CCC2C3CCC4=C/C(=N/OCC(=O)NCC(=O)NC(C(=O)O)C(C)C)CC[C@]4(C)C3CC[C@@]21C` (some centres undefined) had a solubility (kinetic) above 80 µg/mL. To `CCOc1ccc(/C=C/c2nc3ccccc3n2S(=O)(=O)c2ccc(Br)cc2)cc1` belongs 0.131 µg/mL (≈ 0.271 µM). For the compound `Cc1ccccc1C(=O)Nc1nc2c(s1)CC(C(C)(C)C)CC2` (centres undefined), the solubility (kinetic) was below 1 µg/mL.

Compound `CCn1cc(C(=O)N2CCN(c3cccc(Cl)c3)CC2)c2cc(OC)c(OC)cc2c1=O` gave a solubility (kinetic) of 3.32 µg/mL (≈ 7.27 µM).

As for `O=S(=O)(Nc1nccs1)c1ccc(NCc2cc(Cl)ccc2O)cc1`, the kinetic solubility was 37.2 µg/mL (≈ 94 µM). To `COc1ccc(-n2nc(C3CCCN(C(=O)Cc4ccccn4)C3)[nH]c2=O)cc1` (centres undefined) belongs above 58 µg/mL; to `CC(=O)c1c(C)[nH]c(C(=O)N(C)C)c1C`, above 31 µg/mL; to `Cc1cc(NS(=O)(=O)c2ccc(NC(=O)c3oc4ccccc4c3C)cc2)nc(C)n1`, below 1 µg/mL.

With `Cc1ccccc1-c1nc(CN2CCC(C(=O)NCCCN3CCOCC3)CC2)c(C)o1`, the solubility (kinetic) was above 65 µg/mL. To `Cc1cccc(C)c1NC(=O)c1nc(SC(C)C)ncc1Cl` belongs 1.22 µg/mL (≈ 3.64 µM); to `Cc1ccc(S(=O)(=O)Nc2cc(Cl)c(Cl)cc2C(=O)Nc2nc(-c3ccccc3)cs2)cc1`, below 1 µg/mL. To `O=C1CCCC2=C1C(c1[nH]ncc1Br)N=C(Nc1nc3ccccc3o1)N2` (centres undefined) belongs below 1 µg/mL; to `CN(C)c1cccc(-c2ccnc(N3CCC(C(N)=O)CC3)n2)c1`, 39.1 µg/mL (≈ 120 µM); to `O=C(Nc1nc(-c2ccccc2)cs1)c1ccncc1NS(=O)(=O)c1ccc(C(F)(F)F)cc1`, below 1 µg/mL. To `Fc1cc(Nc2nc(-c3ccncc3)nc3ccccc23)ccc1-c1cccc(OC(F)F)c1` belongs below 1 µg/mL. Compound `CCC[C@@H]1CN(C(=O)c2ccc(-c3ccc(C)o3)cc2)C[C@H]1NC(C)=O` had a solubility (kinetic) above 52 µg/mL. To `O=C(Nc1ccc(S(=O)(=O)Nc2nc(-c3ccccc3)cs2)cc1)c1ccc2ccccc2c1` belongs below 1 µg/mL. In turn, `COc1ccc(-n2nc(C3CCN(C(=O)C4CC4)CC3)[nH]c2=O)cc1` registered a solubility (kinetic) above 51 µg/mL. Then `O=C1Nc2ccccc2/C1=C/c1ccc[nH]1`, with 1.91 µg/mL (≈ 9.09 µM). With `O=S(=O)(Nc1nccs1)c1ccc(NCc2ccc(Br)cc2O)cc1`, the kinetic solubility is below 1 µg/mL.

For the origin of these results see PubChem BioAssay AID1645848.
